Assay results: patent US20230340012A1, “NATURAL AND SYNTHETIC COMPOUNDS FOR TREATING CANCER AND OTHER DISEASES” (PACIFIC ARROW LIMITED, priority 2009, published 2023)
Where “and” joins values, the source holds several entries; their conditions need not be identical. Equal values may be shown once.

Legend:
[1] = tested on: Human leukemia cells K562; assay: Inhibition of cell cycling, K562, flow cytometry; format: cell-based; conditions: K562, three days
Procedure: • 1. Method: Cells: Human leukemia cells K562 cultured in RPMI1640 medium. • 2. Drug: compound from present application or Tig-S (1000x stock solution in DMSO). • 3. Start cells concentration: 500000 /ml. • 4. Cells were cultured with drug (0 - 20 ug/ml) for total of three days. • 5. Cells were harvested by centrifugation (136xg, 6 minutes); fixed with 70% ethanol and kept in -20° C. before staining. • 6. Staining: Fixed cells were stained with Propidium iodide/RNase A/0.1% Triton X-100 in PBS. • 7. Flow Cytometry Analysis was performed in Baylor Core Facility with a LSRII instrument. • 8. Analysis: Single cell was gated and cell count - FL2-Area histogram were plotted. • 9. Cell distribution in different cell-cycle phases (G0/G1, S, G2/M) was analyzed.

[2] = tested on: Human leukemia cells K562; assay: Inhibition of human leukemia K562 cells, cell counting; format: cell-based
Procedure: Method: • 1. Cells: Human leukemia cells K562 in RPMI1640 medium. • 2. Drug: Tig-S (1000x stock solution in DMSO). • 3. Start cells concentration: […] (500000/ml). • 4. Cells were cultured with or without drug for total of four days. • 5. Cell number is doubled after 2 days of incubation. Fresh medium (equal volume, with or without drug) was then added to culture. • 6. Cells were counted every day.

[3] = tested on: DR5 (TNFRSF10B) in ES2 cells; assay: Induction of DR5 in ES2 cells, Western blot; format: cell-based, human
Procedure: 1). Cells and drug-treatment: ES2 cells (Ovarian cancer cells) were cultured in RPMI1640 medium with 10% FBS, antibiotics (Pen Strep) and L-Glutamine in a 37° C., 5% CO2 incubator. Cells in log-growth phase were treated with Tig-R (10 ug/ml), or DMSO (as control) for 2 days.
(§1) 2). Total cell protein extraction: Drug-treated cells were collected, pelleted with centrifugation. The cell pellet was extracted with SDS-Sample buffer (containing PMSF and protease inhibitors cocktail). About 0.1 gram cell pellet was extracted in 1 ml of extraction buffer. The cell extract was then incubated in boiling water bath for 6 minutes with occasionally vortexing. The protein extract was immediately frozen in -80° C. before used.
3). SDS gel electrophoresis: 10-20 ug of protein sample was loaded into each lane of a 10% SDS gel. Electrophoresis was conducted with 100 volt constant for 2 hours.
(§2) 4). Western Blot: Separated proteins from SDS gel were transferred to a nitrocellulose membrane, which was blocked with 5% non-fat dry milk. The membrane was then exposed to 1st antibody (anti-TNFRSF10B) over night, then washed. The membrane was then incubated in 2nd antibody (anti-mouse-AP conjugated) for an hour, then washed. The immuno-bands were developed with BCIP/NBT substrate.
5. Another SDS gel with same protein loading was stained with Coomassie Brilliant Blue (CBB) for protein staining.
(§3) A. Cells and drug-treatment: HepG2 cells (liver cancer cells), CAPAN cells, ES2 cells (Ovary cell) were cultured in DMEM medium with 10% FBS, antibiotics (Pen Strep) and L-Glutamine in a 37° C., 5% CO2 incubator. Cells in log-growth phase were treated with Tig-R (10 ug/ml), Tig-S (4 ug/ml) or DMSO (as control) for 2 days.
as §1, with “B.” for “2).”
(§4) C. SDS gel electrophoresis: 10-20 ug of protein sample was loaded into each lane of a 10% SDS gel. Electrophoresis was conducted with 100 volt constant for 2 hours.
as §2, with “D.” for “4).”
(§5) E. Another SDS gel with same sample loading was stained with Coomassie Brilliant Blue (CBB) for protein staining.
(§6) F. Determination of Western blot band intensity: The band-images of Western blot were captured with a digital camera and the intensity of bands was determined using “Image J” software.

[4] = tested on: DR5 (TNFRSF10B) in CAPAN cells; assay: DR5 Western blot, CAPAN cells; format: cell-based, human; conditions: Tig-R 10 ug/ml, 2 days
Procedure: as §3
as §1, with “B.” for “2).”
as §4
as §2, with “D.” for “4).”
as §5, §6

Jurkat cells = assay: Agonist activity of anti-DR5 antibody with Tig-R in Jurkat cells, MTT; format: cell-based, human
Procedure: Experiment 44: Agonist activity of […] anti-DR5 antibody with Tig-R in Jurkat cells Jurkat cells (Human Acute T-cell leukemia) were cultured in RPMI1640 medium with 10% FBS, antibiotics (Pen Strep) and L-Glutamine in a 37C, 5% CO2 incubator. Cells in log-growth phase (about 0.5 million cells per ml) were treated with antibody (AB) or/and Tig-R. The antibody is Human TRAIL R2/TNFRSF 10B Antibody from R&D (MAB631-100). Treatment time is 2 days. Inhibition of cell growth after treatment was determined by MTT assay.
Conditions for combination studies: Tig-R (2.5 ug/ml) was added together with AB (2-8 ng/ml). Cells

[5] = tested on: Capan cells (pancreas carcinoma); assay: Agonist activity of anti-DR5 antibody with Tig-R in Capan cells, MTT; format: cell-based, human
Procedure: Capan cells (pancreas carcinoma) were cultured in RPMI1640 medium supplemented with 10% FBS, antibiotics (Pen Strep) and L-Glutamine. Cells were incubated in a 37° C., 5% CO2 incubator.
Antibody: Antibody against Human TRAIL R2/TNFRSF 10B, (from R&D Systems cat# MAB631-100).
Treatment. Cells in log-growth phase were used. Cells were plated in 96-welled plate with 10 K/well 1-2 days before treatment.
Antibody are serially diluted with medium before adding to culture and incubated for 2 days.
After a treatment for 2 days, the quantity of live cells is then determined with MTT assay*. The percentage of cell growth with drugs was determined by comparing to the no-drug (DMSO) control.

[6] = ES2 cells, Tig-R, 2 days, single experiments 2-5

Compound	concentration from which cells in G2/M phase decrease [1] [µg/mL]	effect on cell cycle [1]	No growth (IC100), K562 ([2]; beginning on day 2) [µg/mL]	IC50, Leukemia K562 cells growth ([2]; cell counting, up to four days)	increase of DR5 over DMSO control cells ([3]; ES2, Tig-R 10 ug/ml, 2 days (Experiment 46)) [%]	increase of DR5 ([3]; ES2 cells, 10 ug/ml, 2 days (Experiment 42))	DR5 band intensity, % of DMSO, Average (%) ([3]; ES2 cells, Tig-R, 2 days, average of 5 experiments)	DR5 Western blot band intensity (Image J) [3, 6]	DR5 band intensity, % of DMSO [3, 6]	DR5 Western blot band intensity (Image J) ([4]; CAPAN cells)	DR5 band intensity, % of DMSO ([4]; CAPAN cells) [%]	increase of DR5 over DMSO control cells ([4]; CAPAN) [%]	combined effect with anti-DR5 antibody (Jurkat cells; Jurkat, Tig-R 2.5 ug/ml)	increase of inhibition with Tig-R (Jurkat cells; Tig-R 2.5 ug/ml added to antibody)	inhibition of cell growth (Jurkat cells; Tig-R 2.5 ug/ml alone, 2 days) [%]	combined effect with anti-DR5 antibody ([5]; Capan, Tig-R 2.5 or 5 ug/ml)	% Inhibition Experimental ([5]; R 2.5 ug/ml alone) [%]	% Inhibition Experimental ([5]; R 5 ug/ml alone) [%]
CC=C(C)C(=O)OCC1(C)C(O)CCC2(C)C1CCC1(C)C2CC=C2C3CC(C)(C)C(OC(=O)C(C)=CC)C(O)C3(CO)C(O)CC21C (stereo not drawn) [Tig-S]	≥ 0.6	arresting cells in the S-phase	≥ 2.5	about 0.6 ug/ml	–	–	–	–	–	–	–	–	–	–	–	–	–	–
24,28-O-Tigloyl-3β,16α, 21β, 22a, 24β, 28-hexahydroxyolean-12-ene [Tig-R]	–	–	–	–	61	at least 2 folds	161	25103 and 17941 and 17133 and 19157	185% and 200% and 148% and 113%	29128	151	51	synergistic	about 20%	8	synergistic	20	29
